ChEMBL document CHEMBL5365543, “Benzamidine Conjugation Converts Expelled Potential Active Agents into Antifungals against Drug-Resistant Fungi” (J Med Chem, 2023)
Calls of active or inactive are those of the source.

How the values were obtained:
[1] = Selectivity ratio of IC50 for cytotoxicity against human HBE cells to MIC80 for antifungal activity against wild-type Candida albicans SC5314; type: toxicity, cell-based
Candida albicans [2] = test: Antifungal activity against wild-type Candida albicans SC5314 assessed as inhibition of fungal growth measured after 24 hrs by CLSI based microtiter plate analysis; type: functional
[3] = Cytotoxicity against human HBE cells assessed as inhibition of cell growth measured after 4 hrs by MTT assay; type: toxicity, cell-based
Candida albicans [4] = test: Antifungal activity against clinical isolate Candida albicans YEM13 overexpressing efflux pump MdrL assessed as inhibition of fungal growth measured after 24 hrs by CLSI based microtiter plate analysis; type: functional
Candida albicans [5] = test: Antifungal activity against clinical isolate Candida albicans YEM15 overexpressing efflux pump CdrL and Cdr2 assessed as inhibition of fungal growth measured after 24 hrs by CLSI based microtiter plate analysis; type: functional
Candida albicans [6] = test: Antifungal activity against clinical isolate Candida albicans SCMRRIR34MPG2A harbouring MRR1 mutation overexpressing efflux pump MdrL assessed as inhibition of fungal growth measured after 24 hrs by CLSI based microtiter plate analysis; type: functional
Candida albicans [7] = test: Antifungal activity against clinical isolate fluconazole-resistant Candida albicans DSY296 harbouring TAC1 mutation overexpressing efflux pump CdrL and Cdr2 assessed as inhibition of fungal growth measured after 24 hrs by CLSI based microtiter plate analysis; type: functional
Candida albicans [8] = test: Antifungal activity against clinical isolate fluconazole-resistant Candida albicans G5 harbouring MRR1 mutation overexpressing MdrL assessed as inhibition of fungal growth measured after 24 hrs by CLSI based microtiter plate analysis; type: functional
Candida albicans [9] = test: Antifungal activity against clinical isolate fluconazole-resistant Candida albicans Gu5 harbouring TAC1 mutation overexpressing efflux pump CdrL and Cdr2 assessed as inhibition of fungal growth measured after 24 hrs by CLSI based microtiter plate analysis; type: functional
Candida albicans [10] = test: Antifungal activity against clinical isolate fluconazole-resistant Candida albicans CA632 assessed as inhibition of fungal growth measured after 24 hrs by CLSI based microtiter plate analysis; type: functional
[Candida] auris [11] = Antifungal activity against clinical isolate fluconazole-resistant Candida auris CBS12776 assessed as inhibition of fungal growth measured after 24 hrs by CLSI based microtiter plate analysis; type: functional; conditions: Candidozyma auris
Nakaseomyces glabratus = test: Antifungal activity against clinical isolate fluconazole-resistant Candida glabrata CG2 assessed as inhibition of fungal growth measured after 24 hrs by CLSI based microtiter plate analysis; type: functional
Candida albicans [12] = test: Antifungal activity against clinical isolate fluconazole-resistant Candida albicans Gu5 infected in BALB/c mouse assessed as reduction in kidney fungal infection at 6 mg/kg, ip administered on day 1 and day 3 post fungal infection measured after 7 days by periodic acid-schiff/hematoxylin and eosin staining based microscopic analysis; type: functional, organism-based; conditions: time 7.0 day
[13] = Drug accumulation in wild-type Candida albicans SC5314 at 50 microg/ml incubated for 3 hrs by HPLC analysis; type: ADME; conditions: dose 50 µg/ml
Candida albicans [14] = test: Induction of drug resistance in wild-type Candida albicans SC5314 assessed as change in MIC at 0.5 times of MIC measured after 30 passages by broth microdilution method; type: functional
Candida albicans [15] = test: Antifungal activity against wild-type Candida albicans SC5314 assessed as decrease in viable count at 2 to 4 microg/ml by colony-counting based time-killing kinetics assay; type: functional, organism-based; conditions: dose 2-4 µg/ml, time 24.0 hrs, TDE = time-dependent effect
Candida albicans [16] = test: Antifungal activity against fluconazole-resistant clinical isolate Candida albicans Gu5 assessed as decrease in viable count measured after 24 hrs by colony-counting based time-killing kinetics assay; type: functional, organism-based; conditions: dose 2-4 µg/ml
Candida albicans [17] = test: Antifungal activity against fluconazole-resistant clinical isolate Candida albicans Gu5 assessed as decrease in viable count at 2 to 4 microg/ml by colony-counting based time-killing kinetics assay; type: functional, organism-based; conditions: dose 2-4 µg/ml, time 24.0 hrs, TDE = time-dependent effect
[Candida] auris [18] = Antifungal activity against clinical isolate fluconazole-resistant Candida auris CBS12774 assessed as decrease in viable count at 2 to 4 microg/ml by colony-counting based time-killing kinetics assay; type: functional, organism-based; conditions: Candidozyma auris, dose 2-4 µg/ml, time 24.0 hrs, TDE = time-dependent effect
[19] = Selectivity ratio of IC50 for cytotoxicity against human HBE cells to MIC80 for antifungal activity against clinical isolate fluconazole-resistant Candida glabrata CG2; type: toxicity, cell-based
[20] = Selectivity ratio of IC50 for cytotoxicity against human HBE cells to MIC80 for antifungal activity against clinical isolate Candida albicans YEM15 overexpressing efflux pump CdrL and Cdr2; type: toxicity, cell-based
[21] = Selectivity ratio of IC50 for cytotoxicity against human HBE cells to MIC80 for antifungal activity against clinical isolate Candida albicans SCUPC2R14MPG2A harbouring UPC2 mutation overexpressing […]; type: toxicity, cell-based
[22] = Selectivity ratio of IC50 for cytotoxicity against human HBE cells to MIC80 for antifungal activity against clinical isolate Candida albicans SCMRRIR34MPG2A harbouring MRR1 mutation overexpressing efflux pump MdrL; type: toxicity, cell-based
[23] = Selectivity ratio of IC50 for cytotoxicity against human HBE cells to MIC80 for antifungal activity against clinical isolate fluconazole-resistant Candida albicans DSY296 harbouring TAC1 mutation overexpressing efflux pump CdrL and Cdr2; type: toxicity, cell-based
[24] = Selectivity ratio of IC50 for cytotoxicity against human HBE cells to MIC80 for antifungal activity against clinical isolate fluconazole-resistant Candida albicans G5 harbouring MRR1 mutation overexpressing MdrL; type: toxicity, cell-based
[25] = Selectivity ratio of IC50 for cytotoxicity against human HBE cells to MIC80 for antifungal activity against clinical isolate fluconazole-resistant Candida albicans Gu5 harbouring TAC1 mutation overexpressing efflux pump CdrL and Cdr2; type: toxicity, cell-based
[26] = Selectivity ratio of IC50 for cytotoxicity against human HBE cells to MIC80 for antifungal activity against clinical isolate fluconazole-resistant Candida albicans CA632; type: toxicity, cell-based
[27] = Selectivity ratio of IC50 for cytotoxicity against human HBE cells to MIC80 for antifungal activity against clinical isolate fluconazole-resistant Candida auris CBS12774; type: toxicity, cell-based
[28] = Selectivity ratio of IC50 for cytotoxicity against human HBE cells to MIC80 for antifungal activity against clinical isolate fluconazole-resistant Candida auris CBS12776; type: toxicity, cell-based
[29] = Selectivity ratio of IC50 for cytotoxicity against human HBE cells to MIC80 for antifungal activity against clinical isolate fluconazole-resistant Cryptococcus neoformans H99; type: toxicity, cell-based
[30] = Selectivity ratio of IC50 for cytotoxicity against human HBE cells to MIC80 for antifungal activity against clinical isolate fluconazole-resistant Candida tropicalis CT10; type: toxicity, cell-based
Candida albicans [31] = test: Inhibition of biofilm formation in fluconazole-resistant clinical isolate Candida albicans Gu5 at 2 microg/ml measured after 24 hrs by alamar blue staining based colorimetric analysis; type: functional, organism-based; conditions: dose 2.0 µg/ml
Candida albicans [32] = test: Inhibition of biofilm formation in wild-type Candida albicans SC5314 at 8 microg/ml measured after 24 hrs by alamar blue staining based colorimetric analysis; type: functional
[Candida] auris [33] = Inhibition of biofilm formation in clinical isolate fluconazole-resistant Candida auris CBS12774 measured after 24 hrs by alamar blue staining based colorimetric analysis; type: functional, organism-based; conditions: Candidozyma auris, dose 4-32 µg/ml
[34] = Toxicity in BALB/c mouse infected with clinical isolate fluconazole-resistant Candida albicans Gu5 assessed as animal survival rate at 6 mg/kg, ip administered on day 1 and day 3 post fungal infection measured after 7 days; type: organism-based; conditions: in vivo, 168 h, time 7 day

C=C1C(=O)[C@@]2(C)CC[C@@H]3[C@@]1(CC[C@H]1[C@@]3(C)CCC[C@@]1(C)C(=O)OCCCOc1ccc(C(=N)N)cc1)C2
40%: Survival [34]
2 µg/mL: MIC80 (Candida albicans [6]) | MIC80 (Candida albicans [7]) | MIC80 (Candida albicans [9]) | MIC80 ([Candida] auris [11]) | MIC80 (Nakaseomyces glabratus)
1 µg/mL: MIC80 (Candida albicans [2]; Candida albicans, SC5314, 24 h, read-out: MIC80) | MIC80 (Candida albicans [4]) | MIC80 (Candida albicans [5]) | MIC80 (Candida albicans [8]) | MIC80 (Candida albicans [10])
active: Activity (Candida albicans [12]) | Activity (Candida albicans [14]) | Activity (Candida albicans [15]) Tde | Activity (Candida albicans [16]) Dose-Dependent Effect | Activity (Candida albicans [17]) Tde | Activity ([Candida] auris [18]) Tde | inhibition (Candida albicans [31]) | inhibition ([Candida] auris [33]) Dose-Dependent Effect
Active: Drug uptake [13]
8: selectivity ratio [1] | selectivity ratio [19] | selectivity ratio [20] | selectivity ratio [21] | selectivity ratio [22] | selectivity ratio [23] | selectivity ratio [24] | selectivity ratio [25] | selectivity ratio [26] | selectivity ratio [27] | selectivity ratio [28] | selectivity ratio [29] | selectivity ratio [30]
16.7 µg/mL: IC50 at 4 h [3]
inactive: MIC (Candida albicans [2])
~80.2%: inhibition at 8 µg/mL (Candida albicans [32])
